Molecules are shown by their SMILES.

The assay relates to Nippostrongylus brasiliensis. Kind of assay: Anthelmintic activity against Nippostrongylus brasiliensis L4 parasitant on day 5 by double serial dilution model. Format: functional, organism-based. Conditions: 120 h.
The EC50 is the concentration that produces a half-maximal response. Higher therefore signals a less potent agent. In the case of `NC(=O)/C=C/c1c[nH]c2ccccc12`, the response was half-maximal at 2370 µM (EC50). This counts as millimolar.

Molecule `COc1cccc2c(/C=C/C(=O)N/C=C/c3cn(C)c4ccccc34)cn(C)c12` showed an EC50 of 300 µM. Compared with the last molecule, the EC50 is about 7.9-fold lower.

`O=C(/C=C/c1c[nH]c2ccccc12)N/C=C/c1c[nH]c2ccccc12` [CHONDRIAMIDE A] displayed an EC50 of 260 µM.

The molecule `O=C(/C=C/c1c[nH]c2ccccc12)N/C=C\c1c[nH]c2ccccc12` [CHONDRIAMIDE C] gave an EC50 of 90 µM.

The record behind these values is ChEMBL document CHEMBL1151333, “A new indole derivative from the red alga Chondria atropurpurea. Isolation, structure determination, and anthelmintic activity” (J Nat Prod, 1998).
